This is an account of results in US8796289B2 (AbbVie Inc., priority 2011, dated 2014).

A value given as a limit tells only on which side of the number the result lay.

Sequence of GST-tagged-Wee1 kinase (P30291 whole entry): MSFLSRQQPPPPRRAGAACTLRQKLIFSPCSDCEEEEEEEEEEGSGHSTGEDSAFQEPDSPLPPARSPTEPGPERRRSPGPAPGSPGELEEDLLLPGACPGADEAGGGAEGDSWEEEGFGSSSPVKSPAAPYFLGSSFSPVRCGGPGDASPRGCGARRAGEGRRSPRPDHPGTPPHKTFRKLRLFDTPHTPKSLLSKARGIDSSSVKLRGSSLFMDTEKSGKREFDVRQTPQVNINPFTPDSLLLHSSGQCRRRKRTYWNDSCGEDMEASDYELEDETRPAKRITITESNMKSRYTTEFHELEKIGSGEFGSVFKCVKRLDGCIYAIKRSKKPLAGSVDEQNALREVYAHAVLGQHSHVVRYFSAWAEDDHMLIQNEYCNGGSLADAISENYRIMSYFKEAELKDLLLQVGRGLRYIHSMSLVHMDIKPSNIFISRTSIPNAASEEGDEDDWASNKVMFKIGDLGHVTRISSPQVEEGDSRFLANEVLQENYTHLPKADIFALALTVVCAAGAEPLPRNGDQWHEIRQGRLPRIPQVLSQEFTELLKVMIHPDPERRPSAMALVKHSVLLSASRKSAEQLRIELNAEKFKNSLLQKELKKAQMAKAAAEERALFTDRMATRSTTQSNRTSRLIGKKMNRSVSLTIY

This assay addresses GST-tagged-Wee1 kinase (Homo sapiens, UniProt P30291). Briefly: Wee1 time-resolved fluorescence equilibrium binding assay (displacement of Oregon Green-labeled ATP-competitive kinase probe). The procedure: Wee1 kinase was assayed using a time-resolved fluorescence equilibrium binding assay monitoring displacement of a rapidly reversible Oregon Green-labeled ATP-competitive kinase probe (N-(2-(2-(2-(4-(4-(5-chloro-4-(2-(1-hydroxycyclobutyl)thiazol-5-yl)-1H-pyrrolo[2,3-b]pyridin-2-yl)phenyl)piperazin-1-yl)ethoxy)ethoxy)ethyl)-2′,7′-difluoro-3′,6′-dihydroxy-3-oxo-3H-spiro[isobenzofuran-1,9′-xanthene]-5-carboxamide) by competitive Wee1 inhibitors.
Take `C=CCn1nc(-c2cccs2)c2nc(Nc3ccc(N4CCN(C(C)C)CC4)cc3)ncc2c1=O` [Example 126, 6-allyl-2-{[4-(4-isopropylpiperazin-1-yl)phenyl]amino}-8-(2-thienyl)pyrimido[4,5-d]pyridazin-5(6H)-one]: the inhibition constant Ki (as a rule, a measure of affinity in units of concentration, obtained from inhibition or displacement) stood at 6 nM. In other words, the single-digit nanomolar range. To `CN1CCN(c2ccc(Nc3ncc4c(=O)n(-c5c(Cl)cccc5Cl)nc(-c5cccc(F)n5)c4n3)cc2)CC1` [Example 243, 6-(2,6-dichlorophenyl)-8-(6-fluoropyridin-2-yl)-2-{[4-(4-methylpiperazin-1-yl)phenyl]amino}pyrimido[4,5-d]pyridazin-5(6H)-one] belongs < 1 nM; to `Cc1ccccc1-n1nc(-c2ccco2)c2nc(Nc3ccc(S(=O)(=O)N4CCOCC4)cc3)ncc2c1=O` [Example 108, 8-(2-furyl)-6-(2-methylphenyl)-2-{[4-(morpholin-4-ylsulfonyl)phenyl]amino}pyrimido[4,5-d]pyridazin-5(6H)-one], 150 nM; to `O=C1CCCN1c1ccc(Nc2ncc3c(=O)n(-c4ccccc4Cl)nc(-c4ccccc4)c3n2)cc1` [Example 168, 6-(2-chlorophenyl)-2-{[4-(2-oxopyrrolidin-1-yl)phenyl]amino}-8-phenylpyrimido[4,5-d]pyridazin-5(6H)-one], 2 nM.

`Cc1nn(-c2ccccc2Cl)c(=O)c2cnc(Nc3ccc4c(c3)CCNC4)nc12` [Example 481, 6-(2-chlorophenyl)-8-methyl-2-(1,2,3,4-tetrahydroisoquinolin-6-ylamino)pyrimido[4,5-d]pyridazin-5(6H)-one] registered a Ki of 0.73 nM. Take `C=Cn1ccc(-c2nn(-c3c(Cl)cccc3Cl)c(=O)c3cnc(Nc4ccc(N5CCN(C)CC5)cc4)nc23)n1` [Example 236, 6-(2,6-dichlorophenyl)-8-(1-ethenyl-1H-pyrazol-3-yl)-2-{[4-(4-methylpiperazin-1-yl)phenyl]amino}pyrimido[4,5-d]pyridazin-5(6H)-one]: the Ki is < 1 nM. To `CN1CCN(c2ccc(Nc3ncc4c(=O)n(-c5cccc(Cl)c5)nc(C5CCCC5)c4n3)cc2)CC1` [Example 56, 6-(3-chlorophenyl)-8-cyclopentyl-2-{[4-(4-methylpiperazin-1-yl)phenyl]amino}pyrimido[4,5-d]pyridazin-5(6H)-one] belongs 63 nM; to `CN1CCN(c2ccc(Nc3ncc4c(=O)n(-c5ccccc5)nc(-c5cccc(Cl)n5)c4n3)cc2)CC1` [Example 73, 8-(6-chloropyridin-2-yl)-2-{[4-(4-methylpiperazin-1-yl)phenyl]amino}-6-phenylpyrimido[4,5-d]pyridazin-5(6H)-one], 3 nM.

In the case of `CS(=O)(=O)N1Cc2cc(Nc3ncc4c(=O)n(-c5c(Cl)cccc5Cl)nc(-c5ccncc5)c4n3)ccc2C2(CC2)C1` [Example 381, 6-(2,6-dichlorophenyl)-2-{[2′-(methylsulfonyl)-2′,3′-dihydro-1′H-spiro[cyclopropane-1,4′-isoquinolin]-7′-yl]amino}-8-(pyridin-4-yl)pyrimido[4,5-d]pyridazin-5(6H)-one], the affinity corresponds to a Ki of 0.81 nM.

`C=CCn1nc(-c2ccco2)c2nc(Nc3ccc(N4CCN(C(C)C)CC4)c(C)c3)ncc2c1=O` [Example 146, 6-allyl-8-(2-furyl)-2-{[4-(4-isopropylpiperazin-1-yl)-3-methylphenyl]amino}pyrimido[4,5-d]pyridazin-5(6H)-one] yielded a Ki of 3 nM. The figure for `CN1CCN(c2ccc(Nc3ncc4c(=O)n(-c5ccccc5Cl)nc(-c5ccccc5F)c4n3)cc2)CC1` [Example 40, 6-(2-chlorophenyl)-8-(2-fluorophenyl)-2-{[4-(4-methylpiperazin-1-yl)phenyl]amino}pyrimido[4,5-d]pyridazin-5(6H)-one] is 1 nM; for `CN1CCC(n2nc(-c3ccccn3)c3nc(Nc4ccc5c(c4)CN(C)CC5(C)C)ncc3c2=O)CC1` [Example 328, 6-(1-methylpiperidin-4-yl)-8-(pyridin-2-yl)-2-[(2,4,4-trimethyl-1,2,3,4-tetrahydroisoquinolin-7-yl)amino]pyrimido[4,5-d]pyridazin-5(6H)-one] it is 220 nM; for `Cn1cnc(-c2nn(-c3c(Cl)cncc3Cl)c(=O)c3cnc(Nc4ccc5c(c4)CNCC54CC4)nc23)c1` [Example 372, 6-(3,5-dichloropyridin-4-yl)-2-(2′,3′-dihydro-1′H-spiro[cyclopropane-1,4′-isoquinolin]-7′-ylamino)-8-(1-methyl-1H-imidazol-4-yl)pyrimido[4,5-d]pyridazin-5(6H)-one] it is 3.7 nM. The figure for `COc1cc(Nc2ncc3c(=O)n(-c4ccccc4C)nc(-c4ccco4)c3n2)ccc1N1CCN(C(C)C)CC1` [Example 138, 8-(2-furyl)-2-{[4-(4-isopropylpiperazin-1-yl)-3-methoxyphenyl]amino}-6-(2-methylphenyl)pyrimido[4,5-d]pyridazin-5(6H)-one] is 1.5 nM; for `CCc1nn(-c2c(Cl)cccc2Cl)c(=O)c2cnc(Nc3ccc(N4CCCN(C)CC4)c(C)c3)nc12` [Example 469, 6-(2,6-dichlorophenyl)-8-ethyl-2-{[3-methyl-4-(4-methyl-1,4-diazepan-1-yl)phenyl]amino}pyrimido[4,5-d]pyridazin-5(6H)-one] it is 0.63 nM; for `CN1CCN(c2ccc(Nc3ncc4c(=O)n(-c5ccccc5C(F)(F)F)nc(-c5ccccc5)c4n3)cc2)CC1` [Example 31, 2-{[4-(4-methylpiperazin-1-yl)phenyl]amino}-8-phenyl-6-[2-(trifluoromethyl)phenyl]pyrimido[4,5-d]pyridazin-5(6H)-one] it is 0.8 nM.

In turn, `Cc1nn(-c2c(Cl)cccc2Cl)c(=O)c2cnc(Nc3cccc(C(=O)N4CCN(CCO)CC4)c3)nc12` [Example 527, 6-(2,6-dichlorophenyl)-2-[(3-{[4-(2-hydroxyethyl)piperazin-1-yl]carbonyl}phenyl)amino]-8-methylpyrimido[4,5-d]pyridazin-5(6H)-one] registered a Ki of 2.8 nM. The figure for `CN1Cc2cc(Nc3ncc4c(=O)n(-c5c(Cl)cccc5Cl)nc(-c5ccn(C)n5)c4n3)ccc2C2(CC2)C1` [Example 153, 6-(2,6-dichlorophenyl)-2-[(2′-methyl-2′,3′-dihydro-1′H-spiro[cyclopropane-1,4′-isoquinolin]-7′-yl)amino]-8-(1-methyl-1H-pyrazol-3-yl)pyrimido[4,5-d]pyridazin-5(6H)-one] is 0.05 nM.

On to `CN1Cc2cc(Nc3ncc4c(=O)n(-c5c(Cl)cccc5Cl)nc(C(F)(F)F)c4n3)ccc2C2(CC2)C1` [Example 413, 6-(2,6-dichlorophenyl)-2-[(2′-methyl-2′,3′-dihydro-1′H-spiro[cyclopropane-1,4′-isoquinolin]-7′-yl)amino]-8-(trifluoromethyl)pyrimido[4,5-d]pyridazin-5(6H)-one], for which the affinity corresponds to a Ki of 0.34 nM. This Ki is about 6.8-fold higher than that of the molecule before. To `Cc1nn(-c2ncccc2Cl)c(=O)c2cnc(Nc3ccc4c(c3)CN(C)CC43CC3)nc12` [Example 351, 6-(3-chloropyridin-2-yl)-8-methyl-2-[(2′-methyl-2′,3′-dihydro-1′H-spiro[cyclopropane-1,4′-isoquinolin]-7′-yl)amino]pyrimido[4,5-d]pyridazin-5(6H)-one] belongs 1.1 nM; to `Cc1ccccc1-n1nc(-c2ccc(-c3ncccn3)cc2)c2nc(Nc3ccc(N4CCN(C)CC4)cc3)ncc2c1=O` [Example 64, 6-(2-methylphenyl)-2-{[4-(4-methylpiperazin-1-yl)phenyl]amino}-8-[4-(pyrimidin-2-yl)phenyl]pyrimido[4,5-d]pyridazin-5(6H)-one], 0.3 nM.
